In the supplement of paper PMC11061612:

Experiments:
Assay in all cases: Bliss excess, mean over the matrix (fraction); higher = more synergy
[1] = test system: PSN1 (Pancreatic Carcinoma)
How it was run: (§1)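 Bliss excess equals the observed combination effect minus the expected value EA + EB − EA·EB, where EA and EB are the effects of each agent alone. Combination Emax is the second-highest inhibition within the matrix. Inhibition was scaled from CellTiter-Glo 2.0 luminescence, with 0 set by vehicle wells and 1 by blank wells, after 72 hours of two-drug dosing of cells plated in 1536-well plates.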

SF268 (Low Grade Glioma) = test system: SF268 (Low Grade Glioma)
How it was run: as §1

[2] = test system: L-1236 (Hodgkin's Lymphoma)
How it was run: as §1

[3] = test system: SHP-77 (Small Cell Lung Carcinoma)
How it was run: as §1

[4] = test system: CAL-62 (Thyroid Gland Carcinoma)
How it was run: as §1

[5] = test system: TE-8 (Esophageal Squamous Cell Carcinoma)
How it was run: as §1

A2058 (Melanoma) = test system: A2058 (Melanoma)
How it was run: as §1

[6] = test system: NCI-H446 (Small Cell Lung Carcinoma)
How it was run: as §1

[7] = test system: KE-37 (T-Lymphoblastic Leukemia)
How it was run: as §1

[8] = test system: LK-2 (Squamous Cell Lung Carcinoma)
How it was run: as §1

[9] = test system: FADU (Head and Neck Carcinoma)
How it was run: as §1

[10] = test system: PC-3_[JPC-3] (Lung Adenocarcinoma)
How it was run: as §1

[11] = test system: OPM-2 (Plasma Cell Myeloma)
How it was run: as §1

WM278 (Melanoma) = test system: WM278 (Melanoma)
How it was run: as §1

[12] = test system: LXF-289 (Lung Adenocarcinoma)
How it was run: as §1

[13] = test system: OVMIU (Ovarian Carcinoma)
How it was run: as §1

[14] = test system: SK-PN-DW (Other Solid Carcinomas)
How it was run: as §1

[15] = test system: REH (B-Lymphoblastic Leukemia)
How it was run: as §1

WM793B (Melanoma) = test system: WM793B (Melanoma)
How it was run: as §1

[16] = test system: HCT-15 (Colorectal Carcinoma)
How it was run: as §1

Row | SMILES | Bliss excess [1] | Bliss excess (SF268 (Low Grade Glioma)) | Bliss excess [2] | Bliss excess [3] | Bliss excess [4] | Bliss excess [5] | Bliss excess (A2058 (Melanoma)) | Bliss excess [6] | Bliss excess [7] | Bliss excess [8] | Bliss excess [9] | Bliss excess [10] | Bliss excess [11] | Bliss excess (WM278 (Melanoma)) | Bliss excess [12] | Bliss excess [13] | Bliss excess [14] | Bliss excess [15] | Bliss excess (WM793B (Melanoma)) | Bliss excess [16]
1 | C=CCn1c(=O)c2cnc(Nc3ccc(N4CCN(C)CC4)cc3)nc2n1-c1cccc(C(C)(C)O)n1 [AZD1775] + O=C(c1cc(Cc2n[nH]c(=O)c3ccccc23)ccc1F)N1CCN(C(=O)C2CC2)CC1 [Olaparib] (first compound max 1 µM, partner max 10 µM) | -0.0585 | -0.0312 | -0.0441 | -0.0436 | 0.0017 | -0.03 | -0.0049 | 0.0223 | 0.0513 | -0.0148 | -0.0303 | -0.0515 | -0.0561 | -0.0312 | -0.0247 | -0.0135 | -0.0694 | -0.0474 | -0.0236 | -0.0674
2 | CCN(CCO)CCCOc1ccc2c(Nc3cc(CC(=O)Nc4cccc(F)c4)[nH]n3)ncnc2c1 [AZD2811] + C=CCn1c(=O)c2cnc(Nc3ccc(N4CCN(C)CC4)cc3)nc2n1-c1cccc(C(C)(C)O)n1 [AZD1775] (first compound max 1 µM, partner max 1 µM) | -0.0007 | -0.0005 | 0.0198 | 0.0241 | 0.0127 | -0.016 | -0.0059 | 0.015 | 0.0353 | -0.0952 | 0.0047 | -0.0752 | -0.0606 | -0.0199 | -0.012 | -0.088 | 0.0431 | 0.0449 | 0.02 | 0.156
3 | CCN(CCO)CCCOc1ccc2c(Nc3cc(CC(=O)Nc4cccc(F)c4)[nH]n3)ncnc2c1 [AZD2811] + C[C@@H]1COCCN1C2=NC(=NC(=C2)C3(CC3)[S@](=N)(=O)C)C4=C5C=CNC5=NC=C4 [AZD6738] (first compound max 1 µM, 7x7, partner max 10 µM) | -0.0366 | -0.027 | -0.0583 | -0.0583 | -0.0568 | -0.0484 | 0.0067 | -0.0514 | -0.0515 | -0.064 | -0.0165 | -0.0453 | -0.0187 | 0.0062 | -0.0763 | -0.0446 | -0.0306 | -0.0518 | -0.0709 | -0.0592
4 | CCN(CCO)CCCOc1ccc2c(Nc3cc(CC(=O)Nc4cccc(F)c4)[nH]n3)ncnc2c1 [AZD2811] + O=C(c1cc(Cc2n[nH]c(=O)c3ccccc23)ccc1F)N1CCN(C(=O)C2CC2)CC1 [Olaparib] (first compound max 1 µM, 7x7, partner max 10 µM) | -0.0206 | 0.0105 | -0.0232 | -0.0191 | 0.0353 | -0.013 | 0.0093 | -0.0882 | -0.0019 | -0.0329 | 0.0347 | -0.0067 | 0.015 | -0.0107 | 0.0677 | -0.0509 | -0.0482 | 0.0285 | -0.015 | -0.0009
5 | CN(CCO)CC[C@H](CSc1ccccc1)Nc1ccc(S(=O)(=O)NC(=O)c2ccc(N3CCC([C@@H](O)c4ccccc4-c4ccc(Cl)cc4)CC3)cc2)cc1S(=O)(=O)C(F)(F)F [AZD4320] + C1CN(CCC1(C(=O)N[C@@H](CCO)C2=CC=C(C=C2)Cl)N)C3=NC=NC4=C3C=CN4 [Capivasertib] (first compound max 1 µM, 7x7, partner max 3 µM) | -0.0264 | -0.0502 | -0.0476 | 0.0185 | -0.0463 | -0.0074 | -0.032 | 0.0316 | 0.0185 | -0.0077 | -0.0268 | -0.0961 | -0.0088 | -0.0378 | -0.0904 | -0.0691 | -0.0588 | 0.0197 | -0.0384 | -0.0435
6 | CN(CCO)CC[C@H](CSc1ccccc1)Nc1ccc(S(=O)(=O)NC(=O)c2ccc(N3CCC([C@@H](O)c4ccccc4-c4ccc(Cl)cc4)CC3)cc2)cc1S(=O)(=O)C(F)(F)F [AZD4320] + C=CCn1c(=O)c2cnc(Nc3ccc(N4CCN(C)CC4)cc3)nc2n1-c1cccc(C(C)(C)O)n1 [AZD1775] (first compound max 1 µM, partner max 1 µM) | -0.0112 | 0.0042 | 0.0006 | 0.0877 | 0.0035 | 0.0378 | 0.0066 | 0.0462 | 0.0578 | 0.0105 | 0.0213 | -0.0114 | 0.0457 | 0.0846 | -0.0252 | 0.0324 | 0.0052 | 0.0738 | -0.0248 | -0.054
7 | CN(CCO)CC[C@H](CSc1ccccc1)Nc1ccc(S(=O)(=O)NC(=O)c2ccc(N3CCC([C@@H](O)c4ccccc4-c4ccc(Cl)cc4)CC3)cc2)cc1S(=O)(=O)C(F)(F)F [AZD4320] + CCN(CCO)CCCOc1ccc2c(Nc3cc(CC(=O)Nc4cccc(F)c4)[nH]n3)ncnc2c1 [AZD2811] (first compound max 1 µM, 7x7, partner max 1 µM) | -0.0029 | 0.0843 | -0.0263 | -0.0019 | 0.0354 | 0.0845 | 0.0723 | -0.0505 | -0.0049 | 0.0358 | 0.0014 | -0.0598 | 0.128 | 0.0469 | -0.0532 | -0.0627 | 0.0024 | 0.175 | 0.0038 | -0.0189
8 | CN(CCO)CC[C@H](CSc1ccccc1)Nc1ccc(S(=O)(=O)NC(=O)c2ccc(N3CCC([C@@H](O)c4ccccc4-c4ccc(Cl)cc4)CC3)cc2)cc1S(=O)(=O)C(F)(F)F [AZD4320] + CN(C)CCCOc1ccc(-c2ccc3ncc4c(c3c2)n(C2CCOCC2)c(=O)n4C)cn1 [AZD0156] (first compound max 1 µM, 7x7, partner max 1 µM) | -0.0308 | -0.0012 | -0.0001 | 0.0223 | -0.005 | -0.0277 | -0.0134 | -0.0002 | -0.0045 | 0.0312 | -0.01 | -0.0583 | 0.0221 | -0.0148 | -0.0636 | -0.0427 | -0.0302 | 0.0092 | -0.0564 | -0.0438
9 | CN(CCO)CC[C@H](CSc1ccccc1)Nc1ccc(S(=O)(=O)NC(=O)c2ccc(N3CCC([C@@H](O)c4ccccc4-c4ccc(Cl)cc4)CC3)cc2)cc1S(=O)(=O)C(F)(F)F [AZD4320] + C[C@@H]1COCCN1C2=NC(=NC(=C2)C3(CC3)[S@](=N)(=O)C)C4=C5C=CNC5=NC=C4 [AZD6738] (first compound max 1 µM, 7x7, partner max 10 µM) | -0.0798 | 0.023 | 0.0169 | -0.0032 | 0.0112 | -0.0357 | -0.0088 | 0.0178 | -0.0133 | -0.0267 | -0.0165 | -0.0469 | -0.0534 | -0.0404 | 0.0029 | 0.0069 | -0.0551 | 0.0532 | -0.0406 | 0.0099
10 | CN(CCO)CC[C@H](CSc1ccccc1)Nc1ccc(S(=O)(=O)NC(=O)c2ccc(N3CCC([C@@H](O)c4ccccc4-c4ccc(Cl)cc4)CC3)cc2)cc1S(=O)(=O)C(F)(F)F [AZD4320] + C[C@@H](Nc1cc(F)cc(F)c1)c1cc(C(=O)N(C)C)cc2c(=O)cc(N3CCOCC3)oc12 [AZD8186] (first compound max 1 µM, 7x7, partner max 3 µM) | -0.0651 | 0.014 | 0.0082 | 0.0216 | 0.046 | 0.008 | 0.0157 | 0.0281 | 0.0866 | -0.0056 | 0.041 | -0.0176 | 0.0851 | 0.035 | -0.0351 | -0.0637 | -0.0087 | 0.0353 | 0.0434 | 0.0162
11 | CN(CCO)CC[C@H](CSc1ccccc1)Nc1ccc(S(=O)(=O)NC(=O)c2ccc(N3CCC([C@@H](O)c4ccccc4-c4ccc(Cl)cc4)CC3)cc2)cc1S(=O)(=O)C(F)(F)F [AZD4320] + Cc1cc2ncnn2cc1Nc1ncc2c(n1)n(C1CCOCC1)c(=O)n2C [AZD7648] (first compound max 1 µM, 7x7, partner max 10 µM) | -0.0361 | -0.0371 | -0.0299 | -0.0012 | -0.0086 | -0.0357 | -0.0231 | 0.0292 | 0.0363 | -0.0075 | -0.016 | -0.0635 | 0.0418 | -0.0277 | -0.0326 | -0.0652 | -0.0411 | 0.0041 | -0.0234 | -0.0202
12 | COc1nnc2ccc(N3CCC(c4ccc(OCCN5CCN(C)C(=O)[C@H]5C)cc4)CC3)nn12 [AZD5153] + C=CCn1c(=O)c2cnc(Nc3ccc(N4CCN(C)CC4)cc3)nc2n1-c1cccc(C(C)(C)O)n1 [AZD1775] (first compound max 1 µM, partner max 1 µM) | -0.0385 | 0.0037 | -0.0138 | 0.0194 | -0.0228 | -0.0426 | -0.0175 | -0.0553 | 0.0096 | 0.0029 | -0.0273 | -0.06 | -0.0366 | -0.0364 | -0.0212 | -0.0409 | -0.0722 | -0.0291 | -0.0265 | -0.0738
13 | COc1nnc2ccc(N3CCC(c4ccc(OCCN5CCN(C)C(=O)[C@H]5C)cc4)CC3)nn12 [AZD5153] + CC1(C)CCC(CN2CCN(c3ccc(C(=O)NS(=O)(=O)c4ccc(NCC5CCOCC5)c([N+](=O)[O-])c4)c(Oc4cnc5[nH]ccc5c4)c3)CC2)=C(c2ccc(Cl)cc2)C1 [Venetoclax] (first compound max 1 µM, 7x7, partner max 1 µM) | -0.0649 | -0.128 | 0.0177 | 0.0049 | -0.0461 | -0.0838 | -0.0876 | 0.0507 | -0.0133 | -0.0015 | -0.0492 | -0.111 | 0.0082 | -0.0188 | -0.009 | -0.0254 | -0.0998 | -0.136 | -0.0525 | -0.0242
